{"source": "patent US12312599B2", "about": "“Methods, compositions, and kits for producing beige adipocytes and treating metabolic disorders” (MaineHealth, priority 2018, dated 2025)", "test_system": "FD-MSCs", "experiment": "BODIPY lipid stain of FD-MSCs during adipogenic differentiation", "format": "cell-based, human", "experimental": "All assays were performed between 7 and 15 passages. For osteocyte differentiation, mature MSCs were grown in 24 well culture plates to 100% confluency in MesenCult-ACF and induced to differentiate in OsteoLife Complete Osteogenesis Medium (Lifeline Cell Technology) for 21 days prior to staining with Lifeline Alizarin Red Stain to visualize calcium deposition. For chondrocyte differentiation. For beige adipogenic precursor generation, cells were grown in 24 well culture plates to 90% confluence and treated with 5 uM SB413542 (Sigma) and 10 nM human IL-4 (Peprotech) for 2 days. For beige adipogenic induction, adipogenic precursors are differentiated for 3 days with adipogenic medium consisting of T3 (2 nM), insulin (170 nM), rosiglitazone (1 μM), SB413542 (5 uM), IBMX (0.5 mM), dexamethasone (5 μM) and indomethacin (125 μM) in EGM-2 medium (Lonza) supplemented with the BulletKit minus FGF2 (modified from^33). Thereafter, cells are maintained in adipogenic medium without IBMX, dexamethasone and indomethacin. The medium was changed every 3 days and adipocytes were fully differentiated by 9-12 days as determined by lipid accumulation and peak expression of UCP1. Cell Isolation, Expansion and Differentiation of Interscapular Brown Adipose Tissue Preadipocytes • 1. Prior to adipose cell isolation, warm DMEM, FBS and cell wash buffer to room temperature. • 2. In a laminar flow cabinet for cell culture, place 5 g of adipose tissue on a 100×20 mm dish. Suspend tissue in 1 mL of Adipose Tissue Dissociation Kit enzyme digest cocktail and finely mince with a razorblade. • 3. […] Incubate tube at 37° C. on a rotating nutator for 30 minutes. During incubation period, briefly vortex sample for 5 s in 10-minute intervals. • 5. Transfer cells to a 15 mL tube and add 5 mL of DMEM. Filter cell suspension through a 100 μm strainer into a new 15 mL tube and centrifuge at 300 g for 5 minutes to form a pellet. • 6. Remove supernatant and leave behind […] of DMEM. Resuspend cell pellet in 10 mL of DMEM containing 10% FBS and plate in a 100×20 mm dish for expansion. Agitate plate to spread cells evenly on well surface and incubate plate at 37° C. in a 5% CO2 incubator undisturbed. Change 100% of medium every day. • 7. Upon 80% confluence, split and passage cells at a ratio of 1:6. • 8. Prepare for passage by warming cell wash buffer and cell culture medium (DMEM containing 10% FBS) to room temperature. Warm TrypLE dissociation reagent to 37° C. • 9. Aspirate cell culture medium from wells and wash once with PBS. Remove PBS and add 500 μL of pre-warmed TrypLE reagent to each well of a 6 well plate. Scale TrypLE amount for larger tissue culture plates accordingly. • 10. Incubate culture plate at 37° C. for 5 minutes. […]", "key": {"[1]": {"settings": "SB throughout the adipogenic differentiation period, day 12"}}, "data": [{"smiles": "NC(=O)c1ccc(-c2nc(-c3ccc4c(c3)OCO4)c(-c3ccccn3)[nH]2)cc1", "note": "[SB, SB431542]", "values": [{"measurement": "lipid accumulation", "setting": "SB for 2 days before and throughout the 12-day adipogenic differentiation", "result": "greatest amount of lipid accumulation"}, {"measurement": "additional increase in lipid droplet staining", "setting": "SB prior to and during differentiation, versus SB during differentiation alone", "result": 45, "unit": "%"}, {"measurement": "cells in culture with lipid content", "setting": "[1]", "result": "approximately 50%"}, {"measurement": "increase in lipid content", "setting": "[1]", "result": 5, "unit": "fold"}]}]}
